IC50 and EC50 data for 32 molecules are collected here from patent publication US20140288071A1, “INHIBITORS OF NOTUM […] AND METHODS OF THEIR USE” (priority 2011, published 2014).

The target of experiment [1] is T1, human notum pectinacetyltransferase (Homo sapiens, UniProt Q6P988).
T1 construct: made in house; conditioned medium used
T1 sequence (Q6P988 20-496): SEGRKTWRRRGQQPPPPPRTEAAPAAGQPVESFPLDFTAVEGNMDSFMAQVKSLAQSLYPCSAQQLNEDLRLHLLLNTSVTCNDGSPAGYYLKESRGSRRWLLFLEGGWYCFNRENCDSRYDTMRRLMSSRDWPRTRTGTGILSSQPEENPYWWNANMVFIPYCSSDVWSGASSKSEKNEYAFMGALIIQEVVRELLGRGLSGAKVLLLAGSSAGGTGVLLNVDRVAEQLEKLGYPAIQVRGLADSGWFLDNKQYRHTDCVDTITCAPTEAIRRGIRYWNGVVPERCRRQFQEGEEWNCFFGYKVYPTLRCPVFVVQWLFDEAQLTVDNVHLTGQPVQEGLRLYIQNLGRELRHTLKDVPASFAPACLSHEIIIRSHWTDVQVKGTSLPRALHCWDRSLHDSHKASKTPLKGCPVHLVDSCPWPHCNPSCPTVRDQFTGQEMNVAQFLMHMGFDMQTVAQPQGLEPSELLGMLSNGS
The experiment can be described thus: Binding assay (OPTS esterase substrate, fluorimetric). The experiment is classed as biochemical. As to conditions: OPTS substrate 5 μM. The method, then:
Plasmid containing human notum pectinacetyltransferase in pcDNA3.1(+) vector was transfected into HEK293 cells and clones were selecting by growing in presence of 400 ug/mL of G418. Condition media from these cells was used for the assay.

Experiment [2] concerns the target T1, human notum pectinacetyltransferase. The experiment can be described thus: Reporter assay (CellSensor LEF/TCF-bla FreeStyle 293F cells, Wnt3a and notum conditioned media). The experiment is classed as cell-based. The method, then:
Plasmid containing human notum pectinacetyltransferase in pcDNA3.1(+) vector was transfected into HEK293 cells and clones were selecting by growing in presence of 400 ug/mL of G418. […] L cells overexpressing and secreting Wnt3a into the conditioned media were purchased from ATCC.
The assay protocol was as follows. […] The cell growth medium consisted of DMEM with 10% Dialyzed FBS, 5 μg/ml Blasticidin (Invitrogen, R210-01), 0.1 mM NEAA, 25 mM HEPES and 1×GPS. Cells were then trypsinized by first rinsing with PBS, followed by addition of 5 mL of trypsin and incubation of plates at room temperature for two minutes. A total of 10 mL of assay media (Opti-MEM, plus 0.5% dialyzed FBS, 0.1 mM NEAA, 1 mM sodium pyruvate, 10 mM HEPES, 1×GPS) was then added per 15 cm plate. Cells were counted and suspended at 0.75 million cells per mL. […] After incubation of cells at 37° C. for 3 hours, 10 μL of 30 mM LiCl in assay medium was added per well, followed by incubation at 37° C. for another 3 hours. […] Ten μL of the Wnt3a/notum pentinacetyltransferase mixture was then transferred from Greiner plates to each well of the 384-well plates containing the CellSensor cells. After incubation of cells overnight at 37° C., reactions were developed by addition of […] of 1×CCF4 (Invitrogen, Catalogue number K1085) to each well, covering the entire 384-well plate, and gentle rocking in the dark at room temperature for 3 hours.

What is called IC50 is the midpoint of a concentration-inhibition curve. Low values mean higher potency, high ones lower potency. The EC50 is the concentration giving half of the maximal effect. High values mean a need for much substance, low ones an effect from little substance. `CON(C)C(=O)CSc1ncnc2sc(C)c(C)c12` [2-((5,6-dimethylthieno[2,3-d]pyrimidin-4-yl)thio)-N-methoxy-N-methylacetamide] returned an IC50 in experiment [1] of under 25 nM. The same molecule returned an EC50 in experiment [2] of under 1000 nM.
Take `CNC(=O)CSc1ncnc2sc(C)c(C)c12` [2-((5,6-dimethylthieno[2,3-d]pyrimidin-4-yl)thio)-N-methylacetamide]: in experiment [1], the IC50 is under 25 nM. The molecule also returned an EC50 in experiment [2] of under 1000 nM.
`Cc1sc2ncnc(SCC(N)=O)c2c1C` [2-((5,6-dimethylthieno[2,3-d]pyrimidin-4-yl)thio)acetamide] displayed an IC50 in experiment [1] of under 25 nM. In addition, the EC50 in experiment [2] is under 1000 nM.
Take `CCc1sc2ncnc(SCC(=O)O)c2c1Br` [2-((5-bromo-6-ethylthieno[2,3-d]pyrimidin-4-yl)thio)acetic acid]: the IC50 in experiment [1] was under 25 nM. The molecule further had an EC50 in experiment [2] of under 1000 nM.
Molecule `CC(C)c1sc2ncnc(SCC(=O)O)c2c1Br` [2-((5-bromo-6-isopropylthieno[2,3-d]pyrimidin-4-yl)thio)acetic acid] gave an IC50 in experiment [1] of under 25 nM. For the same molecule, the EC50 in experiment [2] was under 1000 nM.
`Cc1sc2ncnc(SCC(=O)O)c2c1Br` [2-((5-bromo-6-methylthieno[2,3-d]pyrimidin-4-yl)thio)acetic acid] returned an IC50 in experiment [1] of under 25 nM. Besides, in experiment [2], the EC50 is under 1000 nM.
As to `CCc1sc2ncnc(SCC(=O)O)c2c1Cl` [2-((5-chloro-6-ethylthieno[2,3-d]pyrimidin-4-yl)thio)acetic acid], the IC50 in experiment [1] is under 25 nM. In addition, in experiment [2], the EC50 was under 1000 nM.
With `Cc1sc2ncnc(SCC(=O)N(C)C)c2c1Cl` [2-((5-chloro-6-methylthieno[2,3-d]pyrimidin-4-yl)thio)-N,N-dimethylacetamide], the IC50 in experiment [1] is under 25 nM. The same molecule displayed an EC50 in experiment [2] of under 1000 nM.
In experiment [1], `Cc1sc2ncnc(SCC(=O)NCCC#N)c2c1Cl` [2-((5-chloro-6-methylthieno[2,3-d]pyrimidin-4-yl)thio)-N-(2-cyanoethyl)acetamide] gave an IC50 of under 25 nM. This molecule came in with an EC50 in experiment [2] of under 1000 nM.
The molecule `Cc1sc2ncnc(SCC(=O)NCCN3CCOCC3)c2c1Cl` [2-((5-chloro-6-methylthieno[2,3-d]pyrimidin-4-yl)thio)-N-(2-morpholinoethyl)acetamide] gave an IC50 in experiment [1] of under 25 nM. The same molecule gave a concentration for a half-maximal effect (EC50) in experiment [2] of under 1000 nM.
`Cc1sc2ncnc(SCC(=O)NCC#N)c2c1Cl` [2-((5-chloro-6-methylthieno[2,3-d]pyrimidin-4-yl)thio)-N-(cyanomethyl)acetamide] showed an IC50 in experiment [1] of under 25 nM. In experiment [2], the EC50 was under 1000 nM.
Molecule `Cc1sc2ncnc(SCC(=O)NCc3ccco3)c2c1Cl` [2-((5-chloro-6-methylthieno[2,3-d]pyrimidin-4-yl)thio)-N-(furan-2-ylmethyl)acetamide] had an IC50 in experiment [1] of under 25 nM. The same molecule came in with a 50% effective concentration (EC50) in experiment [2] of under 1000 nM.
`CCNC(=O)CSc1ncnc2sc(C)c(Cl)c12` [2-((5-chloro-6-methylthieno[2,3-d]pyrimidin-4-yl)thio)-N-ethylacetamide] registered an IC50 in experiment [1] of under 25 nM. In experiment [2], this molecule gave an EC50 of under 1000 nM.
As for `CCCc1sc2ncnc(SCC(=O)O)c2c1Cl` [2-((5-chloro-6-propylthieno[2,3-d]pyrimidin-4-yl)thio)acetic acid], the IC50 in experiment [1] was under 25 nM. This molecule also yielded an EC50 in experiment [2] of under 1000 nM.
On to `Cc1sc2ncnc(SCC(=O)O)c2c1C1CC1` [2-((5-cyclopropyl-6-methylthieno[2,3-d]pyrimidin-4-yl)thio)acetic acid], for which the IC50 in experiment [1] is under 25 nM. For the same molecule, in experiment [2], the concentration giving a half-maximal response (EC50) is under 5000 nM.
Turning to `O=C(O)CSc1ncnc2sc3c(c12)CCC3` [2-((6,7-dihydro-5H-cyclopenta[4,5]thieno[2,3-d]pyrimidin-4-yl)thio)acetic acid], the IC50 in experiment [1] was under 25 nM. For the same molecule, the EC50 in experiment [2] was under 5000 nM.
In turn, `Cc1c(Br)sc2ncnc(SCC(=O)O)c12` [2-((6-bromo-5-methylthieno[2,3-d]pyrimidin-4-yl)thio)acetic acid] registered an IC50 in experiment [1] of under 25 nM. This molecule also gave an EC50 in experiment [2] of under 1000 nM.
`Cc1c(Cl)sc2c(SCC(=O)NCCC#N)ncnc12` [2-((6-chloro-7-methylthieno[3,2-d]pyrimidin-4-yl)thio)-N-(2-cyanoethyl)acetamide] had an IC50 in experiment [1] of under 25 nM. The EC50 in experiment [2] is under 1000 nM.
Molecule `COCCNC(=O)CSc1ncnc2c(C)c(Cl)sc12` [2-((6-chloro-7-methylthieno[3,2-d]pyrimidin-4-yl)thio)-N-(2-methoxyethyl)acetamide] yielded an IC50 in experiment [1] of under 25 nM. The same molecule gave a concentration for a half-maximal effect (EC50) in experiment [2] of under 1000 nM.
Take `Cc1c(Cl)sc2c(SCC(=O)NCC#N)ncnc12` [2-((6-chloro-7-methylthieno[3,2-d]pyrimidin-4-yl)thio)-N-(cyanomethyl)acetamide]: in experiment [1], the IC50 is under 25 nM. In addition, the EC50 in experiment [2] was under 1000 nM.
On to `CCNC(=O)CSc1ncnc2c(C)c(Cl)sc12` [2-((6-chloro-7-methylthieno[3,2-d]pyrimidin-4-yl)thio)-N-ethylacetamide], for which, in experiment [1], the IC50 is under 25 nM. In experiment [2], this molecule yielded an EC50 of under 1000 nM.
The like results for `Cc1cc2c(SCC(=O)O)ncnc2s1` [2-((6-methylthieno[2,3-d]pyrimidin-4-yl)thio)acetic acid] were, in that order, under 250 nM and under 10000 nM.
The molecule `Cc1sc2c(SCC(=O)O)ncnc2c1C1CC1` [2-((7-cyclopropyl-6-methylthieno[3,2-d]pyrimidin-4-yl)thio)acetic acid] displayed a 50% inhibitory concentration (IC50) in experiment [1] of under 25 nM. For the same molecule, the EC50 in experiment [2] was under 1000 nM.
The like results for `Cc1csc2c(SCC(=O)O)ncnc12` [2-((7-methylthieno[3,2-d]pyrimidin-4-yl)thio)acetic acid] were, in that order, under 250 nM and under 15000 nM.
The molecule `Cc1sc2ncnc(SCC(=O)NCCc3cn[nH]c3)c2c1Cl` [N-(2-(1H-pyrazol-4-yl)ethyl)-2-((5-chloro-6-methylthieno[2,3-d]pyrimidin-4-yl)thio)acetamide] yielded an IC50 in experiment [1] of under 50 nM. In experiment [2], this molecule registered an EC50 of under 1000 nM.
In experiment [1], `Cc1sc2ncnc(SCC(=O)NC#N)c2c1C` [N-cyano-2-((5,6-dimethylthieno[2,3-d]pyrimidin-4-yl)thio)acetamide] yielded an IC50 of under 25 nM. The same molecule came in with an EC50 in experiment [2] of under 1000 nM.
The like results for `CCCCOC(=O)CSc1ncnc2sc(C)c(C)c12` [butyl 2-((5,6-dimethylthieno[2,3-d]pyrimidin-4-yl)thio)acetate] were, in that order, under 25 nM and under 1000 nM.
Molecule `Cc1sc2ncnc(SCC(=O)OC(C)C)c2c1C` [isopropyl 2-((5,6-dimethylthieno[2,3-d]pyrimidin-4-yl)thio)acetate] had an IC50 in experiment [1] of under 25 nM. Further, the half-maximal effective concentration (EC50) in experiment [2] was under 1000 nM.
As for `Cc1sc2ncnc(SCC(=O)OC(C)C)c2c1Cl` [isopropyl 2-((5-chloro-6-methylthieno[2,3-d]pyrimidin-4-yl)thio)acetate], the IC50 in experiment [1] is under 25 nM. This molecule also returned an EC50 in experiment [2] of under 1000 nM.
In experiment [1], `COC(=O)CSc1ncnc2sc(C)c(C)c12` [methyl 2-((5,6-dimethylthieno[2,3-d]pyrimidin-4-yl)thio)acetate] yielded an IC50 of under 25 nM. The molecule also displayed an EC50 in experiment [2] of under 1000 nM.
As to `COC(=O)CSc1ncnc2c(C)c(Cl)sc12` [methyl 2-((6-chloro-7-methylthieno[3,2-d]pyrimidin-4-yl)thio)acetate], the IC50 in experiment [1] was under 25 nM. The molecule further came in with an EC50 in experiment [2] of under 1000 nM.
The like results for `CCCOC(=O)CSc1ncnc2sc(C)c(C)c12` [propyl 2-((5,6-dimethylthieno[2,3-d]pyrimidin-4-yl)thio)acetate] were, in that order, under 25 nM and under 1000 nM.
